Earlier results as cited in patent publication US7326683B2, “Treatment of membrane-associated diseases and disorders using lantibiotic containing compositions” (Molichem Medicines, Inc., priority 2004, dated 2008).

Key:
[1] = test system: clatharin-coated vesicle; conditions: clatharin-coated vesicle acidification; Stone et al., J. Biol. Chem. 259: 2701-2703 (1984)
[2] = aspirin used after the sentinel event, atherosclerotic heart disease (ASHD)

Row | Molecule | inhibition of the proton translocation facilitated by chloride translocation [1] | decrease of risk of MI [2]
1 | duramycin | up to 50% | –
2 | CC(=O)Oc1ccccc1C(=O)O [aspirin] | – | approximately 50%
